Measured values from ChEMBL document CHEMBL5380857, “Discovery of Potent, Selective, and Orally Bioavailable Small-Molecule Inhibitors of CDK8 for the Treatment of Cancer” (J Med Chem, 2023).
Active and inactive are the calls of the source. The rule behind the calls is not given here.

How the values were obtained:
[1] = target: T1, Serine/threonine-protein kinase LATS2 (Homo sapiens, UniProt Q9NRM7); test: Binding affinity to LATS2 (unknown origin) assessed as dissociation constant by competitive binding assay
T1 sequence (Q9NRM7 whole entry): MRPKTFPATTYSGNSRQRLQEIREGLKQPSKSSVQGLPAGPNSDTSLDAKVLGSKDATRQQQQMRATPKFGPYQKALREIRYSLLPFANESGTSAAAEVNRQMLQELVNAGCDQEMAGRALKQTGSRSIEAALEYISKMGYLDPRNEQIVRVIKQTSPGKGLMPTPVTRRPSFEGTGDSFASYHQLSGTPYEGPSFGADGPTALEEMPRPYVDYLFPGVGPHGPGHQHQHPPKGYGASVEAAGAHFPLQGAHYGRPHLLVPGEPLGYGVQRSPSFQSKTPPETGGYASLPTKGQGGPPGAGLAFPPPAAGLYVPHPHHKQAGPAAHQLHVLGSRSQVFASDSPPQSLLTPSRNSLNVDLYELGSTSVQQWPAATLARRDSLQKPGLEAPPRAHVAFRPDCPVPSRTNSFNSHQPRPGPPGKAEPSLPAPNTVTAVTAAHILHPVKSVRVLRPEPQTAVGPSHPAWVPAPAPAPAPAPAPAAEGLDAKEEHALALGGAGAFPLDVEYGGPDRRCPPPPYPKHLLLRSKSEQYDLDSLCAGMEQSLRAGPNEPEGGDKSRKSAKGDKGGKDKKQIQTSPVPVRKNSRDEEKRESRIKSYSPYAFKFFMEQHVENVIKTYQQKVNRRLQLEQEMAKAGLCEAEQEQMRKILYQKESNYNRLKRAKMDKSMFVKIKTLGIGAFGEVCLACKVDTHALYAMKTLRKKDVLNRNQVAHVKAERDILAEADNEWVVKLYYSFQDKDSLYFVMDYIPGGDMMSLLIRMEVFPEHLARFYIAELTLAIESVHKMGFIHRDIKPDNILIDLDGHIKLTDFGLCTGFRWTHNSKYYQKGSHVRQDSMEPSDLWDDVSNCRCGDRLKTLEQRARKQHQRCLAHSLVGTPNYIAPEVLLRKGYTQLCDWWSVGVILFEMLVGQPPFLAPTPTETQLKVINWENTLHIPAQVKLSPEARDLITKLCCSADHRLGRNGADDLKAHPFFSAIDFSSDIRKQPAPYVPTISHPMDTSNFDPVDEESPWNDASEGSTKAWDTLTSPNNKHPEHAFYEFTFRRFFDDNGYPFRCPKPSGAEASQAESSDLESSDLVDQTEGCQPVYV

Cytochrome P450 2C9 = Cytochrome P450 2C9 (Homo sapiens, UniProt P11712); test: Inhibition of CYP2C9 in human liver microsomes using diclofenac as substrate assessed as reduction in substrate hydroxylation incubated for 10 mins in presence of NADPH by LC-MS/MS analysis; type: ADME, Microsome
[2] = Clearance in Beagle dog assessed as liver blood flow at 1 mg/kg, po or 0.5 mg/kg, iv administered as single dose and measured for 24 hrs by LC-MS/MS analysis; type: ADME, organism-based, Canis lupus familiaris; settings: in vivo
[3] = target: Phosphatidylinositol 3-kinase catalytic subunit type 3 (Homo sapiens, UniProt Q8NEB9); test: Binding affinity to VPS34 (unknown origin) assessed as dissociation constant by competitive binding assay
[4] = target: Dual specificity tyrosine-phosphorylation-regulated kinase 1B (Homo sapiens, UniProt Q9Y463); test: Binding affinity to DYRK1B (unknown origin) assessed as dissociation constant by competitive binding assay
[5] = Bioavailability in CD-1 mouse at 5 mg/kg, po or 1 mg/kg, iv administered as single dose and measured for 24 hrs by LC-MS/MS analysis; type: ADME, organism-based; settings: in vivo
MV4-11 [6] = test: Induction of cell cycle arrest in human MV4-11 cells assessed as accumulation of cells at G0/G1 phase at 0.01 to 1 uM incubated for 48 hrs; type: functional, cell-based; settings: dose 0.01-1 µM
[7] = Volume of distribution in Sprague-Dawley rat at 5 mg/kg, po or 1 mg/kg, iv administered as single dose and measured for 24 hrs by LC-MS/MS analysis; type: ADME, organism-based; settings: in vivo
[8] = Half life in Sprague-Dawley rat at 5 mg/kg, po or 1 mg/kg, iv administered as single dose and measured for 24 hrs by LC-MS/MS analysis; type: ADME, organism-based; settings: in vivo
[9] = Half life in Beagle dog at 1 mg/kg, po or 0.5 mg/kg, iv administered as single dose and measured for 24 hrs by LC-MS/MS analysis; type: ADME, organism-based, Canis lupus familiaris; settings: in vivo
[10] = Half life in CD-1 mouse at 5 mg/kg, po or 1 mg/kg, iv administered as single dose and measured for 24 hrs by LC-MS/MS analysis; type: ADME, organism-based; settings: in vivo
[11] = Metabolic stability in mouse liver microsomes assessed as intrinsic clearance at 1 uM preincubated for 10 mins followed by NADPH addition and measured for 60 mins by LC-MS/MS analysis; type: ADME, Microsome; settings: read-out: CLH
MV4-11 [12] = test: Antitumor activity against human MV4-11 cells xenografted in BALB/c nude mouse assessed as inhibition of tumor growth administered orally by gavage twice per day for 17 days and measured 3 times per week by caliper method; type: functional, cell-based; settings: dose 1-10 mg/kg, route po, time 17.0 day
Cytochrome P450 2D6 = Cytochrome P450 2D6 (Homo sapiens, UniProt P10635); test: Inhibition of CYP2D6 in human liver microsomes using dextromethorphan as substrate assessed as reduction in substrate demethylation incubated for 10 mins in presence of NADPH by LC-MS/MS analysis; type: ADME, Microsome
[13] = Metabolic stability in human liver microsomes assessed as intrinsic clearance at 1 uM preincubated for 10 mins followed by NADPH addition and measured for 60 mins by LC-MS/MS analysis; type: ADME, Microsome; settings: read-out: CLH
CDK8/Cyclin C = CDK8/Cyclin C (Homo sapiens, UniProt P49336); test: Inhibition of His tagged human recombinant CDK8/Cyclin C expressed in baculovirus expression system incubated for 15 mins by FRET-based LanthaScreen binding competition assay
[14] = target: Dual specificity protein kinase CLK1 (Homo sapiens, UniProt P49759); test: Binding affinity to CLK1 (unknown origin) assessed as dissociation constant by competitive binding assay
[15] = Volume of distribution in Beagle dog at 1 mg/kg, po or 0.5 mg/kg, iv administered as single dose and measured for 24 hrs by LC-MS/MS analysis; type: ADME, organism-based, Canis lupus familiaris; settings: in vivo
MV4-11 [16] = test: Antiproliferative activity against human MV4-11 cells assessed as inhibition of cell growth incubated for 10 days and replacement with fresh media with compounds on day 5 by CTG assay; type: functional, cell-based
[17] = Bioavailability in Sprague-Dawley rat at 5 mg/kg, po or 1 mg/kg, iv administered as single dose and measured for 24 hrs by LC-MS/MS analysis; type: ADME, organism-based; settings: in vivo
[18] = (§1) Antitumor activity against mouse LL2 cells implanted in C57BL/6J syngeneic mouse model assessed as tumor growth inhibition at 1 mg/kg, po administered via gavage twice daily for 14 days in presence of mPDL1 antibody administered twice per week and measured 3 times a week by caliper method relative to control; type: functional; settings: Lewis lung carcinoma, 336 h, time 14 day, read-out: TGI
MC-38 = test: as §1, with “mouse MC-38” for “mouse LL2”, “at 3” for “at 1”, “gavage once” for “gavage twice”, “for 21” for “for 14”; type: functional; settings: MC-38, 504 h, time 21 day, read-out: TGI

Sequence of Cytochrome P450 2C9 (P11712 whole entry): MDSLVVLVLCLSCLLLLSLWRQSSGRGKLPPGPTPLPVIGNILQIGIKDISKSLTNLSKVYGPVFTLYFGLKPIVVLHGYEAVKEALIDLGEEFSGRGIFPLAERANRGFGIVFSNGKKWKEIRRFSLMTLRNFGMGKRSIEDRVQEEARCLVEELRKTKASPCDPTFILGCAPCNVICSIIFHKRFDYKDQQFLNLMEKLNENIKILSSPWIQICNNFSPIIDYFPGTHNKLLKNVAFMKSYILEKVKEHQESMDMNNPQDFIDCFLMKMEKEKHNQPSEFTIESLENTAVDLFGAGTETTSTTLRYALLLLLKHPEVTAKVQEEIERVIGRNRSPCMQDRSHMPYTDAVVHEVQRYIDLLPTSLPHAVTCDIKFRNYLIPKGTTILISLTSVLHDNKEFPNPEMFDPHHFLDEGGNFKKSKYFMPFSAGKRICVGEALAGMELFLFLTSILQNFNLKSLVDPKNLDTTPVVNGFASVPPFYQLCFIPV
Sequence of CDK8/Cyclin C (P49336 whole entry): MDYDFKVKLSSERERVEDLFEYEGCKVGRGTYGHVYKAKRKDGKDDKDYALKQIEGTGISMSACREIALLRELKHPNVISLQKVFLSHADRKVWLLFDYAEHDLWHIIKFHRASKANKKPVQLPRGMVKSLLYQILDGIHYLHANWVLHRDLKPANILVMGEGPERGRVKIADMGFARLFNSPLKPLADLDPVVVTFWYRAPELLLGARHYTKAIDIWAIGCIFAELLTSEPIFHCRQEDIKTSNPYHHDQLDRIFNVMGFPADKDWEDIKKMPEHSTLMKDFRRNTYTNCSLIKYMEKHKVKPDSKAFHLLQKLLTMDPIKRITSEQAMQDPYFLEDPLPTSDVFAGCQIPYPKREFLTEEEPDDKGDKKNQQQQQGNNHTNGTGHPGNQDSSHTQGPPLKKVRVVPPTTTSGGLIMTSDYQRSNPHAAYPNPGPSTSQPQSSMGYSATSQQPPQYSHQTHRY
Sequence of CDK8/Cyclin C (P24863 whole entry, further chain): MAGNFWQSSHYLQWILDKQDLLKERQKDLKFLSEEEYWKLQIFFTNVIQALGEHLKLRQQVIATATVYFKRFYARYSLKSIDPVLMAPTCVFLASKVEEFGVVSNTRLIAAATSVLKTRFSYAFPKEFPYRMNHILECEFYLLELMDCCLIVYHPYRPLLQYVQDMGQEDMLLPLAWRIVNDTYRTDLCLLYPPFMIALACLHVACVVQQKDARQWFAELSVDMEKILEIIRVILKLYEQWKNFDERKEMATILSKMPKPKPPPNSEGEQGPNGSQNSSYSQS
Sequence of Dual specificity tyrosine-phosphorylation-regulated kinase 1B (Q9Y463 whole entry): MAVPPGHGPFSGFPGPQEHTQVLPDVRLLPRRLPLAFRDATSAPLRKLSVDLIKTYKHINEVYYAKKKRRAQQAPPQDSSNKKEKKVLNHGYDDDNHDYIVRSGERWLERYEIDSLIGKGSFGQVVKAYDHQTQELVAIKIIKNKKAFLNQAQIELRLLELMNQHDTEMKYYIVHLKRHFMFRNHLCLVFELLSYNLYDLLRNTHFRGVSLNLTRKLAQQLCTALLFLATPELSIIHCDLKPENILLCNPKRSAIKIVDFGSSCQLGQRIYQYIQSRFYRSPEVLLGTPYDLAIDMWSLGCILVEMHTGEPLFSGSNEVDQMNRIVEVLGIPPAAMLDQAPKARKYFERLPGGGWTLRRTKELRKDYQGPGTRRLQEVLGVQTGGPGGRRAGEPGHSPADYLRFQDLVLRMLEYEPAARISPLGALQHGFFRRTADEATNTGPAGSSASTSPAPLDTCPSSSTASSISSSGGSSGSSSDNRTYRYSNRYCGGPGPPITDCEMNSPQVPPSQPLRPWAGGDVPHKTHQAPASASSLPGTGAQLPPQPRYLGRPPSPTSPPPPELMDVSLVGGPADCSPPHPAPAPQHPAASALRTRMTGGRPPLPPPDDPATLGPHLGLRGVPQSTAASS
Sequence of Dual specificity protein kinase CLK1 (P49759 whole entry): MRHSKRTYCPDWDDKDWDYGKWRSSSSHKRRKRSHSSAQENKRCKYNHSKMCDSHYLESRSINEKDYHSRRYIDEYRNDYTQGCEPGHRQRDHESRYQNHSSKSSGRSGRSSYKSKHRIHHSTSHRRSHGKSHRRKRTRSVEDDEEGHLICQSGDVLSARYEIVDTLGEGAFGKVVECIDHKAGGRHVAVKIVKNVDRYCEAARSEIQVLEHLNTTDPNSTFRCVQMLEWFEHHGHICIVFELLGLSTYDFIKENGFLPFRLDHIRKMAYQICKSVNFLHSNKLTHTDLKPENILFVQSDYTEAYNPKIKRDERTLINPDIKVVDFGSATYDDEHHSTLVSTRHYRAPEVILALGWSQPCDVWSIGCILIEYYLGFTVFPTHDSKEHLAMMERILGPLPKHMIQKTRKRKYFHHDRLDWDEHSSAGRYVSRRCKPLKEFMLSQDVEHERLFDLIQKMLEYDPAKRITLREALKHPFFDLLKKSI
Sequence of Cytochrome P450 2D6 (P10635 whole entry): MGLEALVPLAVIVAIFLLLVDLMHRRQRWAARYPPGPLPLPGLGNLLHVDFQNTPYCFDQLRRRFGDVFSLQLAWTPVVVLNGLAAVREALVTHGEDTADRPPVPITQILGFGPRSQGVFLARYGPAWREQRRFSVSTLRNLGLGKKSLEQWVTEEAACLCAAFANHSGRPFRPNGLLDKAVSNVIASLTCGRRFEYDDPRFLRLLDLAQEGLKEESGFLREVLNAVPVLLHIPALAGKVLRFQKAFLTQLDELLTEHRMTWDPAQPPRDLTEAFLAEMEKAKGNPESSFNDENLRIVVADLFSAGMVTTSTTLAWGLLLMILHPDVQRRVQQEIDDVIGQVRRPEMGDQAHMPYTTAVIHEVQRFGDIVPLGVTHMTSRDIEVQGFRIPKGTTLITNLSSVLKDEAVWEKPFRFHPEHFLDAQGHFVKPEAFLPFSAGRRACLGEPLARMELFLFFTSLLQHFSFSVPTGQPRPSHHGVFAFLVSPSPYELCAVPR
Sequence of Phosphatidylinositol 3-kinase catalytic subunit type 3 (Q8NEB9 whole entry): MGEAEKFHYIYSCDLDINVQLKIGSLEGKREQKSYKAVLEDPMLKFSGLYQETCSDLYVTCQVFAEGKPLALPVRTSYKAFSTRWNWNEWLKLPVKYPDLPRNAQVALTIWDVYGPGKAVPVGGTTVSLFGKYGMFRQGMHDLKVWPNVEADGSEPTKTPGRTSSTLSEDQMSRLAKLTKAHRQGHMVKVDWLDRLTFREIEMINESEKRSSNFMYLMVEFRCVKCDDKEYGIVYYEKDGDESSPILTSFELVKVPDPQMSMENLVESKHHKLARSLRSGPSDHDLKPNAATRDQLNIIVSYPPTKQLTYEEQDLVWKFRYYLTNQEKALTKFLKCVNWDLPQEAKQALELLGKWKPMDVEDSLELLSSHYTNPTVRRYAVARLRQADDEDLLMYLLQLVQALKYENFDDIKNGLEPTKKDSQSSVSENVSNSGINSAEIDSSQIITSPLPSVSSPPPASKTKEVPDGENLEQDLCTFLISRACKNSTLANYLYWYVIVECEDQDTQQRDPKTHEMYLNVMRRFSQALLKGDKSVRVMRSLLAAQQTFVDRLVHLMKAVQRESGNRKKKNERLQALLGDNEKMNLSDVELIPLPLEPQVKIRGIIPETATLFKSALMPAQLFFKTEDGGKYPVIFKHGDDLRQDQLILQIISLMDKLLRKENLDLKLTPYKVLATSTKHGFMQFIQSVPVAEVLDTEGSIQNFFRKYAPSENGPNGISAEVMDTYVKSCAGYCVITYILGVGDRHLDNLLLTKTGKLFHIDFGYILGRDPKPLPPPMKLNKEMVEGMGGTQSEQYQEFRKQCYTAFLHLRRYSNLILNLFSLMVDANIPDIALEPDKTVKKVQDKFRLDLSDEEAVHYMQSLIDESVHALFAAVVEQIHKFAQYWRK

## Cc1n[nH]c2ccc(-c3nnc(C)n3Cc3ccc(C(F)(F)F)cc3)cc12
[1]
  Kd: 250 nM
Cytochrome P450 2C9
  IC50: 11.4 µM
[2]
  LBF: 7.2%
[3]
  Kd: 4.2 µM
[4]
  Kd: 2700 nM
[5]
  bioavailability: 87.4%
MV4-11 [6]
  Activity: Active
[7]
  Vd: 1.2 L/kg
[8]
  half-life: 234 min
[9]
  half-life: 276 min
[10]
  half-life: 228 min
[11]
  CLint scaled at 1 µM: 148 mL/min/kg
MV4-11 [12]
  inhibition: Dose-Dependent Effect
Cytochrome P450 2D6
  IC50: 44.2 µM
[13]
  CLint scaled at 1 µM: < 8.6 mL/min/kg
CDK8/Cyclin C
  IC50: 0.7 nM
[14]
  Kd: 89 nM
[15]
  Vd: 0.5 L/kg
MV4-11 [16]
  IC50: 11.8 nM
[17]
  bioavailability: 97.7%
[18]
  inhibition in vivo at 1 mg/kg: 46.1%
MC-38
  inhibition in vivo at 3 mg/kg: 80.4%
